The numbers were not newly measured in paper PMC7938295 (Biomedical Reports, 2021), which cites them from elsewhere.

For this data set, the target named is DPP4 (Homo sapiens, UniProt P27487). The settings on record: read-out: DPP4 Ki.
Sequence of DPP4 (P27487 whole entry): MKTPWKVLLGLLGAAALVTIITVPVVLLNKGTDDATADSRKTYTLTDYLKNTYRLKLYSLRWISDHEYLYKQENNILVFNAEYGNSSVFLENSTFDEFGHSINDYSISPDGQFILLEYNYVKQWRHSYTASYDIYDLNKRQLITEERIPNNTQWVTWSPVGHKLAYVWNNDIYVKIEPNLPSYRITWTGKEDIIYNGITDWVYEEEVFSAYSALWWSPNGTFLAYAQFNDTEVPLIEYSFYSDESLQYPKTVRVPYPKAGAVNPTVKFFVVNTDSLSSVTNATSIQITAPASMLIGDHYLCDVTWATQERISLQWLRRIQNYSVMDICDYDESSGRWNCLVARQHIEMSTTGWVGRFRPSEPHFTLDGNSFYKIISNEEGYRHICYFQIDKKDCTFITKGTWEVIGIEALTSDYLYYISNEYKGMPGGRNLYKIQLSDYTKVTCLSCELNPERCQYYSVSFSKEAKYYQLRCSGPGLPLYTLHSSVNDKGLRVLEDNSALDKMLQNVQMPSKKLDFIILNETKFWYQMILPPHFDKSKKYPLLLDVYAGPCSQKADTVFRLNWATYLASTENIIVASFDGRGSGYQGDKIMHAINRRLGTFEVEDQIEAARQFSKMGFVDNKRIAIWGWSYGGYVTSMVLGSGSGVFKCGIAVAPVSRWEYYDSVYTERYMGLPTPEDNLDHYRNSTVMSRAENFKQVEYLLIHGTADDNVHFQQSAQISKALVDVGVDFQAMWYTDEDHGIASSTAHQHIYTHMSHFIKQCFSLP

On to `O=c1cc(-c2ccccc2)oc2ccccc12` [flavone], for which the Ki – broadly, the equilibrium dissociation constant of an inhibitor or competing ligand from its target – was 18.6 µM.
